Test results from ChEMBL document CHEMBL5579845, “Ophiobolin A derivatives with enhanced activities under tumor-relevant acidic conditions” (2024).

Tests used:
[1] = Antiproliferative activity against human GBM43 cells cultured under pH 6.5 assessed as reduction in cell viability by measuring growth inhibition incubated for 48 hrs by MTT assay; format: functional
[2] = Antiproliferative activity against human GBM43 cells cultured under pH 7.5 assessed as reduction in cell viability by measuring growth inhibition incubated for 48 hrs by MTT assay; format: functional
[3] = Potency index, ratio of ophiobolin A GI50 to test compound GI50 for antiproliferative activity against human GBM43 cells cultured under pH 6.5 assessed as reduction in cell viability by measuring growth inhibition incubated for 48 hrs by MTT assay; format: functional
[4] = tested on: U-87 MG; test: Antitumor activity against human U-87 MG cells stably expressing luciferase reporter xenografted in female athymic nude mouse assessed as median survival time at 24 mg/kg, iv administered for six times starting from day 12 post tumor development and measured upto 60 days post tumor development; format: functional, U-87MG ATCC; settings: time <= 48 day

Structure (SMILES)	GI50 [1]	GI50 [2]	RatioGI50 [3]	MST [4]
CO[C@H]1O[C@@]2(OC)C[C@@](C)(O)[C@H]3C[C@@]4(C)CC[C@@]5(O[C@@H](C=C(C)C)C[C@@H]5C)[C@@H]4C/C=C/1[C@H]32	500 nM	–	–	–
CC(C)=C[C@H]1C[C@H](C)[C@]2(CC[C@]3(C)C[C@H]4[C@H](C(=O)C[C@@]4(C)O)/C(=C/OCCCl)[C@H](O)C[C@H]32)O1	650 nM	1070 nM	–	–
CC(C)=C[C@H]1C[C@H](C)[C@]2(CC[C@]3(C)C[C@H]4[C@H](C(=O)C[C@@]4(C)O)/C(C(O)OCCBr)=C\C[C@H]32)O1 (some centres not stated)	150 nM	270 nM	2	–
CC(C)=C[C@H]1C[C@H](C)[C@]2(CC[C@]3(C)C[C@H]4[C@H](C(=O)C[C@@]4(C)O)/C(C(O)OC(C)C)=C\C[C@H]32)O1 (some centres not stated)	340 nM	–	–	–
COCCOC(O)/C1=C/C[C@@H]2[C@](C)(CC[C@@]23O[C@@H](C=C(C)C)C[C@@H]3C)C[C@H]2[C@@H]1C(=O)C[C@@]2(C)O (some centres not stated)	1090 nM	–	–	–
CC(C)=C[C@H]1C[C@H](C)[C@]2(CC[C@]3(C)C[C@H]4[C@H](C(=O)C[C@@]4(C)O)/C(C(O)OCCF)=C\C[C@H]32)O1 (some centres not stated)	1700 nM	2890 nM	–	–
CC(C)=C[C@H]1C[C@H](C)[C@]2(CC[C@]3(C)C[C@H]4[C@H](C(=O)C[C@@]4(C)O)/C(=C/OCCF)[C@H](O)C[C@H]32)O1	1500 nM	2770 nM	–	–
CC(C)=C[C@H]1C[C@H](C)[C@]2(CC[C@]3(C)C[C@H]4[C@H](C(=O)C[C@@]4(C)O)/C(C(O)OCCCl)=C\C[C@H]32)O1 (some centres not stated)	750 nM	2770 nM	–	–
CC(C)=C[C@H]1C[C@H](C)[C@]2(CC[C@]3(C)C[C@H]4[C@H](C(=O)C[C@@]4(C)O)/C(=C/OCCBr)[C@H](O)C[C@H]32)O1	140 nM	490 nM	2	–
CC(C)=C[C@H]1C[C@H](C)[C@]2(CC[C@]3(C)C[C@H]4[C@H](C(=O)C[C@@]4(C)O)/C(=C/OCC(F)(F)F)[C@H](O)C[C@H]32)O1	830 nM	–	–	–
CO[C@@H]1O[C@@]2(OC)C[C@@](C)(O)[C@H]3C[C@@]4(C)CC[C@@]5(O[C@@H](C=C(C)C)C[C@@H]5C)[C@@H]4C/C=C/1[C@H]32	1460 nM	–	–	–
COc1cccc2c1C(=O)c1c(O)c3c(c(O)c1C2=O)C[C@@](O)(/C(CO)=N/NC(=O)CCCCCN1C(=O)C=CC1=O)C[C@@H]3O[C@H]1C[C@H](N)[C@H](O)[C@H](C)O1 [ALDOXORUBICIN]	–	–	–	62 days
CC(C)=C[C@H]1C[C@H](C)[C@]2(CC[C@]3(C)C[C@H]4[C@H](C(=O)C[C@@]4(C)O)/C(C=O)=C\C[C@H]32)O1 [OPHIOBOLIN A]	290 nM	220 nM	–	–
